Measurements as given in patent publication US12559495B2 (Agency for Science, Technology and Research, priority 2013, dated 2026).

Test system: HEK293-STF3A cells
Experiment: STF3A assay (luciferase reporter)
Format: cell-based
Details: Homo sapiens, 24 h, 1 day of treatment
Description: HEK293-STF cell line was modified from Human embryonic kidney cell line HEK293 transfected with the STF reporter. HEK293-STF3A cell line was further modified from HEK293-STF cell line to express Wnt3A. This cell line was used to identify compounds that regulate either early or late signalling components of the Wnt pathway. L-Wnt3A (ATCC, #CRL-2647) cell line was used for providing Wnt3A conditioned media. The three cell lines were grown in DMEM (Dulbecco's Modified Eagle Medium) with 10% FBS (fetal bovine serum) incubated in 37° C. with 5% CO2. 2×10^4 HEK293-STF3A cells in 75 μl culture media were seeded in each well of white 96 well plates (Greiner #655098) and incubated overnight at 37° C. 25 μl serially diluted compound was added to the cells to give final concentration of 50 μM to 1.5 nM. After 1 day of treatment, 100 μl of Steady-Glo® Luciferase Assay reagent (#E2520, Promega) was added to each well and incubated for 10 minutes at room temperature. Luminescence was measured using Tecan Safire2® plate reader.

Structure (SMILES) | IC50 [nM]
CC(C(=O)Nc1ccc(-c2ccsc2)cc1)n1cnc2c1c(=O)n(C)c(=O)n2C (stereo not shown) [Compound 61, 2-(1,3-dimethyl-2,6-dioxo-2,3-dihydro-1H-purin-7(6H)-yl)-N-(4-(thiophen-3-yl)phenyl)propanamide] | < 100
C[C@@H]1CN(C(=O)OC(C)(C)C)CCN1c1ccc(NC(=O)Cn2cnc3c2c(=O)n(C)c(=O)n3C)cc1 [Compound 16, (R)-tert-butyl 4-(4-(2-(1,3-dimethyl-2,6-dioxo-2,3-dihydro-1H-purin-7(6H)-yl)acetamido)phenyl)-3-methylpiperazine-1-carboxylate] | < 1000
Cn1c(=O)c2c(ncn2CC(=O)Nc2ccc(-c3ccncc3)cc2)n(C)c1=O [Compound 10, 2-(1,3-dimethyl-2,6-dioxo-2,3-dihydro-1H-purin-7(6H)-yl)-N-(4-(pyridin-4-yl)phenyl)acetamide] | < 1000
Cn1c(=O)c2c(ncn2CC(=O)Nc2ccc(-c3ccc(F)cc3)cn2)n(C)c1=O [Compound 37, 2-(1,3-dimethyl-2,6-dioxo-2,3-dihydro-1H-purin-7(6H)-yl)-N-(5-(4-fluorophenyl)pyridin-2-yl)acetamide] | < 100
Cn1c(=O)c2c(ncn2C(C)(C)C(=O)Nc2ccc(-c3ccsc3)cc2)n(C)c1=O [Compound 60, 2-(1,3-dimethyl-2,6-dioxo-2,3-dihydro-1H-purin-7(6H)-yl)-2-methyl-N-(4-(thiophen-3-yl)phenyl)propanamide] | < 1000
COc1ccccc1-c1ccc(NC(=O)Cn2cnc3c2c(=O)n(C)c(=O)n3C)cc1 [Compound 27, 2-(1,3-dimethyl-2,6-dioxo-2,3-dihydro-1H-purin-7(6H)-yl)-N-(2′-methoxybiphenyl-4-yl)acetamide] | > 10000
Cn1c(=O)c2c(ncn2CC(=O)Nc2cc(-c3ccccc3)cs2)n(C)c1=O [Compound 3, 2-(1,3-dimethyl-2,6-dioxo-2,3-dihydro-1H-purin-7(6H)-yl)-N-(4-phenylthiophen-2-yl)acetamide] | < 1000
Cn1c(=O)c2c(ncn2CC(=O)Nc2ccc(-c3ccccn3)cc2)n(C)c1=O [Compound 25, 2-(1,3-dimethyl-2,6-dioxo-2,3-dihydro-1H-purin-7(6H)-yl)-N-(4-(pyridin-2-yl)phenyl)acetamide] | < 100
Cc1nc2c(c(=O)n(C)c(=O)n2C)n1CC(=O)Nc1ccc(-c2ccsc2)cc1 [Compound 66, N-(4-(thiophen-3-yl)phenyl)-2-(1,3,8-trimethyl-2,6-dioxo-2,3-dihydro-1H-purin-7(6H)-yl)acetamide] | < 100
CC(C(=O)Nc1ccc(-c2ccccc2)nn1)n1cnc2c1c(=O)n(C)c(=O)n2C (stereo not shown) [Compound 77, 2-(1,3-dimethyl-2,6-dioxo-2,3-dihydro-1H-purin-7(6H)-yl)-N-(6-phenylpyridazin-3-yl)propanamide] | < 100
CC(C(=O)Nc1ccc(-c2ccccc2)cc1)n1cnc2c1c(=O)n(C)c(=O)n2C (stereo not shown) [Compound 62, N-(biphenyl-4-yl)-2-(1,3-dimethyl-2,6-dioxo-2,3-dihydro-1H-purin-7(6H)-yl)propanamide] | < 100
Cn1c(=O)c2c(ncn2CC(=O)Nc2ccc(-c3ccc(F)cc3)nn2)n(C)c1=O [Compound 11, 2-(1,3-dimethyl-2,6-dioxo-2,3-dihydro-1H-purin-7(6H)-yl)-N-(6-(4-fluorophenyl)pyridazin-3-yl)acetamide] | < 100
C[C@H]1CN(C(=O)c2ccccc2)CCN1c1ccc(NC(=O)Cn2cnc3c2c(=O)n(C)c(=O)n3C)cc1 [Compound 46, (S)—N-(4-(4-benzoyl-2-methylpiperazin-1-yl)phenyl)-2-(1,3-dimethyl-2,6-dioxo-2,3-dihydro-1H-purin-7(6H)-yl)acetamide] | < 1000
C[C@H](C(=O)Nc1ccc(-c2nccs2)cn1)n1cnc2c1c(=O)n(C)c(=O)n2C [Compound 83, (R)-2-(1,3-dimethyl-2,6-dioxo-1,2,3,6-tetrahydro-7H-purin-7-yl)-N-(5-(thiazol-2-yl)pyridin-2-yl)propanamide] | < 10000
Cn1c(=O)c2c(ncn2CC(=O)Nc2ccc(-c3cccs3)cc2)n(C)c1=O [Compound 89, 2-(1,3-dimethyl-2,6-dioxo-1,2,3,6-tetrahydro-7H-purin-7-yl)-N-(4-(thiophen-2-yl)phenyl)acetamide] | < 100
Cn1c(=O)c2c(ncn2CC(=O)Nc2ccc(-c3ccccc3)cn2)n(C)c1=O [Compound 19, 2-(1,3-dimethyl-2,6-dioxo-2,3-dihydro-1H-purin-7(6H)-yl)-N-(5-phenylpyridin-2-yl)acetamide] | < 100
Cn1c(=O)c2c(ncn2CC(=O)Nc2ccc(-c3ccccc3)s2)n(C)c1=O [Compound 2, 2-(1,3-dimethyl-2,6-dioxo-2,3-dihydro-1H-purin-7(6H)-yl)-N-(5-phenylthiophen-2-yl)acetamide] | < 100

Structure (SMILES) | IC50 [nM]
Cn1c(=O)c2c(nc(-c3ccccc3)n2CC(=O)Nc2ccc(-c3ccsc3)cc2)n(C)c1=O [Compound 69, 2-(1,3-dimethyl-2,6-dioxo-8-phenyl-2,3-dihydro-1H-purin-7(6H)-yl)-N-(4-(thiophen-3-yl)phenyl)acetamide] | < 100
Cn1c(=O)c2c(ncn2CC(=O)Nc2ccc(N3CCNCC3)cn2)n(C)c1=O [Compound 42, 2-(1,3-dimethyl-2,6-dioxo-2,3-dihydro-1H-purin-7(6H)-yl)-N-(5-(piperazin-1-yl)pyridin-2-yl)acetamide] | > 10000
Cn1c(=O)c2c(ncn2CC(=O)Nc2ccc(-c3ncccn3)cc2)n(C)c1=O [Compound 8, 2-(1,3-dimethyl-2,6-dioxo-2,3-dihydro-1H-purin-7(6H)-yl)-N-(4-(pyrimidin-2-yl)phenyl)acetamide] | < 5000
Cn1c(=O)c2c(ncn2CC(=O)Nc2ccc(N3CCN(Cc4ccccc4)CC3)cn2)n(C)c1=O [Compound 53, N-(5-(4-benzylpiperazin-1-yl)pyridin-2-yl)-2-(1,3-dimethyl-2,6-dioxo-2,3-dihydro-1H-purin-7(6H)-yl)acetamide] | < 100
Cn1c(=O)c2c(ncn2CC(=O)Nc2ccc(-c3ccncc3)nn2)n(C)c1=O [Compound 12, 2-(1,3-dimethyl-2,6-dioxo-2,3-dihydro-1H-purin-7(6H)-yl)-N-(6-(pyridin-4-yl)pyridazin-3-yl)acetamide] | < 5000
Cn1c(=O)c2c(ncn2CC(=O)Nc2ccc(-c3ncco3)cc2)n(C)c1=O [Compound 24, 2-(1,3-dimethyl-2,6-dioxo-2,3-dihydro-1H-purin-7(6H)-yl)-N-(4-(oxazol-2-yl)phenyl)acetamide] | < 1000
C[C@H]1CNCCN1c1ccc(NC(=O)Cn2cnc3c2c(=O)n(C)c(=O)n3C)cc1 [Compound 43, (S)-2-(1,3-dimethyl-2,6-dioxo-2,3-dihydro-1H-purin-7(6H)-yl)-N-(4-(2-methylpiperazin-1-yl)phenyl)acetamide] | > 10000
Cn1c(=O)c2c(ncn2CC(=O)Nc2ccc(-c3cncs3)cc2)n(C)c1=O [Compound 1, 2-(1,3-dimethyl-2,6-dioxo-2,3-dihydro-1H-purin-7(6H)-yl)-N-(4-(thiazol-5-yl)phenyl)acetamide] | < 100
Cn1c(=O)c2c(ncn2CC(=O)Nc2ccc(-c3nccs3)cc2)n(C)c1=O [Compound 34, 2-(1,3-dimethyl-2,6-dioxo-2,3-dihydro-1H-purin-7(6H)-yl)-N-(4-(thiazol-2-yl)phenyl)acetamide] | < 100
Cn1c(=O)c2c(ncn2CC(=O)Nc2ccc(-c3ccccc3)nc2)n(C)c1=O [Compound 35, 2-(1,3-dimethyl-2,6-dioxo-2,3-dihydro-1H-purin-7(6H)-yl)-N-(6-phenylpyridin-3-yl)acetamide] | < 100
Cc1cc(-c2ccccc2)ccc1NC(=O)Cn1cnc2c1c(=O)n(C)c(=O)n2C [Compound 13, 2-(1,3-dimethyl-2,6-dioxo-2,3-dihydro-1H-purin-7(6H)-yl)-N-(3-methylbiphenyl-4-yl)acetamide] | > 10000
Cn1c(=O)c2c(ncn2CC(=O)Nc2ccc(-c3cccnn3)cc2)n(C)c1=O [Compound 6, 2-(1,3-dimethyl-2,6-dioxo-2,3-dihydro-1H-purin-7(6H)-yl)-N-(4-(pyridazin-3-yl)phenyl)acetamide] | < 1000
CN(C)c1nc2c(c(=O)n(C)c(=O)n2C)n1CC(=O)Nc1ccc(-c2ccsc2)cc1 [Compound 73, 2-(8-(dimethylamino)-1,3-dimethyl-2,6-dioxo-2,3-dihydro-1H-purin-7(6H)-yl)-N-(4-(thiophen-3-yl)phenyl)acetamide] | < 100
C[C@@H](C(=O)Nc1ccc(-c2ccccc2)nn1)n1cnc2c1c(=O)n(C)c(=O)n2C [Compound 79, (S)-2-(1,3-dimethyl-2,6-dioxo-2,3-dihydro-1H-purin-7(6H)-yl)-N-(6-phenylpyridazin-3-yl)propanamide] | < 100
Cn1c(=O)c2c(ncn2CC(=O)Nc2ccc(N3CCN(C(=O)CC(C)(C)C)CC3)cn2)n(C)c1=O [Compound 47, 2-(1,3-dimethyl-2,6-dioxo-2,3-dihydro-1H-purin-7(6H)-yl)-N-(5-(4-(3,3-dimethylbutanoyl)piperazin-1-yl)pyridin-2-yl)acetamide] | < 1000
Cc1nc(-c2ccc(NC(=O)CCn3cnc4c3c(=O)n(C)c(=O)n4C)cc2)cs1 [Compound 92, 3-(1,3-dimethyl-2,6-dioxo-1,2,3,6-tetrahydro-7H-purin-7-yl)-N-(4-(2-methylthiazol-4-yl)phenyl)propanamide] | < 1000
Cn1c(=O)c2c(ncn2CC(=O)Nc2ccc(N3CCN(C(=O)c4cccs4)CC3)cn2)n(C)c1=O [Compound 50, 2-(1,3-dimethyl-2,6-dioxo-2,3-dihydro-1H-purin-7(6H)-yl)-N-(5-(4-(thiophene-2-carbonyl)piperazin-1-yl)pyridin-2-yl)acetamide] | < 1000
